Results: paper PMC12494798, “Anle138b binds predominantly to the central cavity in lipidic Aβ₄₀ fibrils and modulates fibril formation” (Nature Communications, 2025)

Target: T1, Aβ₄₀ (L1 lipidic Aβ₄₀ fibril, amyloid beta 1-40) (Homo sapiens, UniProt P05067)
T1 construct: gene APP; Aβ(1-40), type 1 lipidic (L1) fibril of two protofilaments
Experiment: ITC on preformed L1 fibrils; supported by DNP-enhanced NHHC ssNMR contacts, (H)CANH titration and cryo-EM density
Assay type: binding

T1 sequence (P05067 672-711): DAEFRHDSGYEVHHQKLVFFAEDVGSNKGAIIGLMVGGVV

Kd: 640 nM
SMILES: Brc1cccc(-c2cc(-c3ccc4c(c3)OCO4)n[nH]2)c1 [anle138b, 3-(1,3-benzodioxol-5-yl)−5-(3-bromophenyl)−1H-pyrazole]
